Assay results: the supplement of paper PMC11061612

What was measured:
[1] = tested on: MDA-MB-175-VII (Breast Carcinoma); assay: Bliss excess, mean over the matrix (fraction); higher = more synergy
Procedure, shortened: (§1)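 Cell lines grown in DMEM/F12 or RPMI with 10% FBS were plated in 1536-well plates and held 24 hours at 37°C, 5% CO2 before 72 hours of exposure to two-drug dose matrices, with DMSO typically at 0.2%. CellTiter-Glo 2.0 luminescence gave viability, which was converted to inhibition. Vehicle wells were set to 0 and blank wells to 1. Combination Emax is the second-highest inhibition in the matrix, and Bliss excess is the observed combination effect minus the expected EA + EB − EA·EB, where EA and EB are the single-agent effects.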

[2] = tested on: JURL-MK1 (Chronic Myelogenous Leukemia); assay: as above
Procedure, shortened: as §1

[3] = tested on: GRANTA-519 (B-Cell Non-Hodgkin's Lymphoma); assay: as above
Procedure, shortened: as §1

[4] = tested on: NCI-H1648 (Lung Adenocarcinoma); assay: as above
Procedure, shortened: as §1

MG-63 (Osteosarcoma) [5] = assay: as above
Procedure, shortened: as §1

[6] = tested on: NCI-H2009 (Lung Adenocarcinoma); assay: as above
Procedure, shortened: as §1

[7] = tested on: SW1463 (Colorectal Carcinoma); assay: as above
Procedure, shortened: as §1

C32 (Melanoma) [8] = assay: as above
Procedure, shortened: as §1

[9] = tested on: SBC-3 (Small Cell Lung Carcinoma); assay: combination Emax (second highest fraction inhibited in the dose matrix, 72 h); higher = more inhibition; extreme values may be limits of the assay
Procedure, shortened: as §1

NCI-H2452 (Mesothelioma) = assay: as above
Procedure, shortened: as §1

[10] = tested on: CAL-85-1 (Breast Carcinoma); assay: as above
Procedure, shortened: as §1

SK-MEL-24 (Melanoma) = assay: as above
Procedure, shortened: as §1

[11] = tested on: SBC-5 (Small Cell Lung Carcinoma); assay: as above
Procedure, shortened: as §1

[12] = tested on: NCI-H1435 (Non-Small Cell Lung Carcinoma); assay: as above
Procedure, shortened: as §1

[13] = tested on: NCI-H2023 (Non-Small Cell Lung Carcinoma); assay: as above
Procedure, shortened: as §1

[14] = tested on: RPMI-8402 (T-Lymphoblastic Leukemia); assay: as above
Procedure, shortened: as §1

MG-63 (Osteosarcoma) [15] = assay: as above
Procedure, shortened: as §1

[16] = tested on: SCC90 (Head and Neck Carcinoma); assay: as above
Procedure, shortened: as §1

C32 (Melanoma) [17] = assay: as above
Procedure, shortened: as §1

A375 (Melanoma) = assay: as above
Procedure, shortened: as §1
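Throughout, for Bliss excess, mean over the matrix: after 72 h of two-drug dosing.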

| Compound | Bliss excess [1] | Bliss excess [2] | Bliss excess [3] | Bliss excess [4] | Bliss excess (MG-63 (Osteosarcoma) [5]) | Bliss excess [6] | Bliss excess [7] | Bliss excess (C32 (Melanoma) [8]) | combination Emax [9] | combination Emax (NCI-H2452 (Mesothelioma)) | combination Emax [10] | combination Emax (SK-MEL-24 (Melanoma)) | combination Emax [11] | combination Emax [12] | combination Emax [13] | combination Emax [14] | combination Emax (MG-63 (Osteosarcoma) [15]) | combination Emax [16] | combination Emax (C32 (Melanoma) [17]) | combination Emax (A375 (Melanoma)) |
| --- | --- | --- | --- | --- | --- | --- | --- | --- | --- | --- | --- | --- | --- | --- | --- | --- | --- | --- | --- | --- |
| CN(CCO)CC[C@H](CSc1ccccc1)Nc1ccc(S(=O)(=O)NC(=O)c2ccc(N3CCC([C@@H](O)c4ccccc4-c4ccc(Cl)cc4)CC3)cc2)cc1S(=O)(=O)C(F)(F)F [AZD4320] + C[C@@H]1COCCN1C2=NC(=NC(=C2)C3(CC3)[S@](=N)(=O)C)C4=C5C=CNC5=NC=C4 [AZD6738] (first compound max 1 µM, 7x7, partner max 10 µM) | -0.0429 | -0.0278 | -0.0075 | -0.0523 | -0.0762 | -0.0099 | -0.0236 | 0.0653 | 0.925 | 0.704 | 0.633 | 0.556 | 0.771 | 0.852 | 0.868 | 1 | 0.525 | 0.535 | 0.787 | 0.789 |
| Cc1cc2ncnn2cc1Nc1ncc2c(n1)n(C1CCOCC1)c(=O)n2C [AZD7648] + CN(C)CCCOc1ccc(-c2ccc3ncc4c(c3c2)n(C2CCOCC2)c(=O)n4C)cn1 [AZD0156] (first compound max 10 µM, 7x7, partner max 1 µM) | -0.0453 | -0.0184 | 0.0266 | 0.0176 | 0.0397 | -0.0019 | 0.0037 | 0.003 | 0.482 | 0.42 | 0.371 | 0.28 | 0.224 | 0.226 | 0.586 | 0.382 | 0.331 | 0.353 | 0.195 | 0.269 |
| C[C@@H](c1ccc2nccn2c1)n1nnc2ncc(-c3cnn(C)c3)nc21 [Savolitinib] + Cc1c2c(nn1C)CSCc1cc(n(C)n1)CSc1cc(c3ccccc3c1)OCCCc1c(C(=O)O)n(C)c3c-2c(Cl)ccc13 [AZD5991] (first compound max 1 µM, 7x7, partner max 1 µM) | -0.0244 | -0.0037 | -0.0338 | 0.0216 | 0.0065 | -0.0063 | -0.0109 | -0.0065 | 0.135 | 0.205 | 0.0993 | 0.225 | 0.538 | 0.122 | 0.247 | 0.502 | 0.257 | 0.454 | 0.184 | 0.182 |
| Cc1cc2ncnn2cc1Nc1ncc2c(n1)n(C1CCOCC1)c(=O)n2C [AZD7648] + CCN(CCO)CCCOc1ccc2c(Nc3cc(CC(=O)Nc4cccc(F)c4)[nH]n3)ncnc2c1 [AZD2811] (first compound max 10 µM, 7x7, partner max 1 µM) | -0.0042 | -0.0046 | 0.0287 | 0.0369 | 0.0401 | 0.0669 | -0.0035 | 0.0271 | 0.564 | 0.497 | 0.31 | 0.373 | 0.39 | 0.288 | 0.534 | 0.886 | 0.39 | 0.452 | 0.279 | 0.492 |
| Cc1nc(Nc2ncc(C(=O)Nc3c(C)cccc3Cl)s2)cc(N2CCN(CCO)CC2)n1 [Dasatinib] + CC(=O)Nc1cccc(-n2c(=O)n(C3CC3)c(=O)c3c(Nc4ccc(I)cc4F)n(C)c(=O)c(C)c32)c1 [Trametinib] (first compound max 2 µM, 7x7, partner max 1 µM) | -0.132 | -0.0029 | -0.0711 | 0.0135 | -0.0066 | 0.0589 | -0.0659 | -0.0198 | 0.528 | 0.804 | 0.853 | 0.815 | 0.409 | 0.42 | 0.394 | 0.307 | 0.734 | 0.846 | 0.984 | 0.794 |
| C=CCn1c(=O)c2cnc(Nc3ccc(N4CCN(C)CC4)cc3)nc2n1-c1cccc(C(C)(C)O)n1 [AZD1775] + C1CN(CCC1(C(=O)N[C@@H](CCO)C2=CC=C(C=C2)Cl)N)C3=NC=NC4=C3C=CN4 [Capivasertib] (first compound max 3 µM, partner max 3 µM) | 0.0171 | 0.0007 | -0.0163 | -0.0257 | -0.0484 | -0.0011 | -0.0888 | -0.0772 | 0.881 | 0.816 | 0.682 | 0.503 | 0.87 | 0.442 | 0.652 | 1 | 0.668 | 0.668 | 0.52 | 0.813 |
| Cc1cc2ncnn2cc1Nc1ncc2c(n1)n(C1CCOCC1)c(=O)n2C [AZD7648] + C=CCn1c(=O)c2cnc(Nc3ccc(N4CCN(C)CC4)cc3)nc2n1-c1cccc(C(C)(C)O)n1 [AZD1775] (first compound max 10 µM, partner max 1 µM) | -0.0282 | -0.0773 | -0.0126 | 0.0026 | 0.0269 | -0.0271 | -0.0327 | 0.0106 | 0.576 | 0.663 | 0.452 | 0.495 | 0.359 | 0.355 | 0.703 | 1 | 0.466 | 0.905 | 0.434 | 0.592 |
| Cc1cc2ncnn2cc1Nc1ncc2c(n1)n(C1CCOCC1)c(=O)n2C [AZD7648] + C[C@@H]1COCCN1C2=NC(=NC(=C2)C3(CC3)[S@](=N)(=O)C)C4=C5C=CNC5=NC=C4 [AZD6738] (first compound max 10 µM, 7x7, partner max 10 µM) | 0.0441 | -0.0039 | -0.0479 | -0.0379 | 0.0557 | 0.0494 | 0.0087 | -0.0021 | 0.71 | 0.525 | 0.594 | 0.509 | 0.481 | 0.217 | 0.796 | 0.988 | 0.503 | 0.325 | 0.649 | 0.687 |
